# From PMC6540285, “Evaluation of Protein Kinase Inhibitors with PLK4 Cross-Over Potential in a Pre-Clinical Model of Cancer” (International Journal of Molecular Sciences, 2019)
# Columns and labels:
# PRKD1 (PKC mu) = PRKD1 (PKC mu) (Homo sapiens, UniProt Q15139); test: SelectScreen kinase profiling, ZLYTE; assay type: biochemical
# P450 2C8 = P450 2C8 (Homo sapiens, UniProt P10632); test: SelectScreen P450 Vivid biochemical assay; details: 10000nM; substrate DBOMF
# CSNK1A1L = CSNK1A1L (Homo sapiens, UniProt Q8N752); test: SelectScreen kinase profiling, ZLYTE; assay type: biochemical
# PI4KA (PI4K alpha) = PI4KA (PI4K alpha) (Homo sapiens, UniProt P42356); test: SelectScreen kinase profiling, Adapta; assay type: biochemical
# ALK = ALK (Homo sapiens, UniProt Q9UM73); test: SelectScreen kinase profiling, ZLYTE; assay type: biochemical
# CDC7/DBF4 = CDC7/DBF4 (Homo sapiens, UniProt O00311); test: SelectScreen kinase profiling, LanthaScreen binding; details: CDC7/DBF4, 10 µM
# PRKACB (PRKAC beta) = PRKACB (PRKAC beta) (Homo sapiens, UniProt P22694); test: as above
# EPHA6 = EPHA6 (Homo sapiens, UniProt Q9UF33); test: as above; details: EPHA6, 10 µM
# PKMYT1 = PKMYT1 (Homo sapiens, UniProt Q99640); test: as above; details: PKMYT1, 10 µM
# LATS1 = LATS1 (Homo sapiens, UniProt O95835); test: as above; details: LATS1, 10 µM
# CAMK2A (CaMKII alpha) = CAMK2A (CaMKII alpha) (Homo sapiens, UniProt Q9UQM7); test: SelectScreen kinase profiling, ZLYTE; assay type: biochemical
# PRKCD (PKC delta) = PRKCD (PKC delta) (Homo sapiens, UniProt Q05655); test: SelectScreen kinase profiling, ZLYTE; assay type: biochemical
# RT and MB cells = test: Beta-galactosidase senescence assay; assay type: cell-based; details: all cell lines
# Protocol: Senescence was evaluated using the Beta-galactosidase assay (Senescence Cells Histochemical Staining Kit CS0030 (Sigma, St Louis, MO, USA) and clonogenic recovery assay as previously described.
# STK22B (TSSK2) = STK22B (TSSK2) (Homo sapiens, UniProt Q96PF2); test: SelectScreen kinase profiling, ZLYTE; assay type: biochemical
# MAP2K2 (MEK2) = MAP2K2 (MEK2) (Homo sapiens, UniProt P36507); test: SelectScreen kinase profiling, LanthaScreen binding
# CSK = CSK (Homo sapiens, UniProt P41240); test: SelectScreen kinase profiling, ZLYTE; assay type: biochemical
# STK17A (DRAK1) = STK17A (DRAK1) (Homo sapiens, UniProt Q9UEE5); test: SelectScreen kinase profiling, LanthaScreen binding
# PRKCQ (PKC theta) = PRKCQ (PKC theta) (Homo sapiens, UniProt Q04759); test: SelectScreen kinase profiling, ZLYTE; assay type: biochemical
# MAPK13 (p38 delta) = MAPK13 (p38 delta) (Homo sapiens, UniProt O15264); test: SelectScreen kinase profiling, ZLYTE; assay type: biochemical
# RPS6KA5 (MSK1) = RPS6KA5 (MSK1) (Homo sapiens, UniProt O75582); test: SelectScreen kinase profiling, ZLYTE; assay type: biochemical
# RET V804E = RET V804E (Homo sapiens, UniProt P07949, V804E); test: SelectScreen kinase profiling, ZLYTE; assay type: biochemical
# CDK9/cyclin T1 = CDK9/cyclin T1 (Homo sapiens, UniProt P50750); test: SelectScreen kinase profiling, Adapta; assay type: biochemical; details: CDK9/cyclin T1, 10 µM
# MAPK3 (ERK1) = MAPK3 (ERK1) (Homo sapiens, UniProt P27361); test: SelectScreen kinase profiling, ZLYTE; assay type: biochemical
# AURKB (Aurora B) = AURKB (Aurora B) (Homo sapiens, UniProt Q96GD4); test: SelectScreen kinase profiling, ZLYTE; assay type: biochemical
# RET V804L = RET V804L (Homo sapiens, UniProt P07949, V804L); test: SelectScreen kinase profiling, ZLYTE; assay type: biochemical
# ABL1 Y253F = ABL1 Y253F (Homo sapiens, UniProt P00519, Y253F); test: SelectScreen kinase profiling, ZLYTE; assay type: biochemical
# MERTK (cMER) = MERTK (cMER) (Homo sapiens, UniProt Q12866); test: SelectScreen kinase profiling, ZLYTE; assay type: biochemical
# CSF1R (FMS) = CSF1R (FMS) (Homo sapiens, UniProt P07333); test: SelectScreen kinase profiling, ZLYTE; assay type: biochemical
# AMPK (A1/B1/G2) = AMPK (A1/B1/G2) (Homo sapiens, UniProt Q13131); test: SelectScreen kinase profiling, LanthaScreen binding
# BMPR1A (ALK3) = BMPR1A (ALK3) (Homo sapiens, UniProt P36894); test: as above
# PHKG2 = PHKG2 (Homo sapiens, UniProt P15735); test: SelectScreen kinase profiling, ZLYTE; assay type: biochemical; details: PHKG2, 10 µM
# NEK2 = NEK2 (Homo sapiens, UniProt P51955); test: SelectScreen kinase profiling, ZLYTE; assay type: biochemical; details: NEK2, 10 µM
# PDGFRA (PDGFR alpha) = PDGFRA (PDGFR alpha) (Homo sapiens, UniProt P16234); test: SelectScreen kinase profiling, ZLYTE; assay type: biochemical
# MINK1 = MINK1 (Homo sapiens, UniProt Q8N4C8); test: SelectScreen kinase profiling, ZLYTE; assay type: biochemical; details: MINK1, 10 µM
# SIK3 = SIK3 (Homo sapiens, UniProt Q9Y2K2); test: SelectScreen kinase profiling, LanthaScreen binding; details: SIK3, 10 µM
# ABL2 (Arg) = ABL2 (Arg) (Homo sapiens, UniProt P42684); test: SelectScreen kinase profiling, ZLYTE; assay type: biochemical
# NTRK2 (TRKB) = NTRK2 (TRKB) (Homo sapiens, UniProt Q16620); test: SelectScreen kinase profiling, ZLYTE; assay type: biochemical
# CASK = CASK (Homo sapiens, UniProt O14936); test: SelectScreen kinase profiling, LanthaScreen binding
# NEK1 = NEK1 (Homo sapiens, UniProt Q96PY6); test: SelectScreen kinase profiling, ZLYTE; assay type: biochemical; details: NEK1, 10 µM
# Chain of AURKB (Aurora B) (Q96GD4 whole entry): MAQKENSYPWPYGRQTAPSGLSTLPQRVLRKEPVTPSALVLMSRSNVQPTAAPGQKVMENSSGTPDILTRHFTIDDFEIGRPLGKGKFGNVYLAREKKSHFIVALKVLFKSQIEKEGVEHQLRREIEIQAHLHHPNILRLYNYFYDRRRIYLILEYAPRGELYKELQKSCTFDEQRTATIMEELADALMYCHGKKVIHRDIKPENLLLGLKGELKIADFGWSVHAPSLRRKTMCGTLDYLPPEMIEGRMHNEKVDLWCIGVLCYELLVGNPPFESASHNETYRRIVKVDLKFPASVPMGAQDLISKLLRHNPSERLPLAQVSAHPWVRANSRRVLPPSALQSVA
# Chain of PRKCQ (PKC theta) (Q04759 whole entry): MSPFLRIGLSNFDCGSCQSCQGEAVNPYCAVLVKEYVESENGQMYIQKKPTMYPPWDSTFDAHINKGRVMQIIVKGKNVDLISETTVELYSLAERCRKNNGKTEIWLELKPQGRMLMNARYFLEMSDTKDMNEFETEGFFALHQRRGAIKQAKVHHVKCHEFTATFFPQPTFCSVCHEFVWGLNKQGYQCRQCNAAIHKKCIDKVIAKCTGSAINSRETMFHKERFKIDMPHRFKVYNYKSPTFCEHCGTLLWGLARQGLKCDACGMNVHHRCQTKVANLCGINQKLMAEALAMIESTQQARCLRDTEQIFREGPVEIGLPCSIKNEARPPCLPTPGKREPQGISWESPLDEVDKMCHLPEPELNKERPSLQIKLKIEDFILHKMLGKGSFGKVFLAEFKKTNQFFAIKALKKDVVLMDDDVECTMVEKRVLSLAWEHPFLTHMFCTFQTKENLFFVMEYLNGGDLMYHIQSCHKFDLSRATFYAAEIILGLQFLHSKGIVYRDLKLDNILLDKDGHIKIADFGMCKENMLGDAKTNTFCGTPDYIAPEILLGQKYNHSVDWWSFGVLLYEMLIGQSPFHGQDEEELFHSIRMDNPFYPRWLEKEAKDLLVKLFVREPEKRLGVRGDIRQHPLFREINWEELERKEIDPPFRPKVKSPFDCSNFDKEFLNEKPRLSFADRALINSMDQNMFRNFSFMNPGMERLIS
# Chain of MAPK13 (p38 delta) (O15264 whole entry): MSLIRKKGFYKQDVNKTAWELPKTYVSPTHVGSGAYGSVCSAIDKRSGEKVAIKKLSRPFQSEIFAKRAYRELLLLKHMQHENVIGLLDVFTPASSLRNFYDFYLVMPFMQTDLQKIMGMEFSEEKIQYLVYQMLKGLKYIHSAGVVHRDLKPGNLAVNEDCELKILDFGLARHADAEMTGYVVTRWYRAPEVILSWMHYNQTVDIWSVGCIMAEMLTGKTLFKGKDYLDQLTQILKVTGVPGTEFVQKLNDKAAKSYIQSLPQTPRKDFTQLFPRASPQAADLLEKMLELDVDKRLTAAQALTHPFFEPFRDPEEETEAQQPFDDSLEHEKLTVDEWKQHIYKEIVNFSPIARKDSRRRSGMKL
# Chain of CDC7/DBF4 (O00311 whole entry): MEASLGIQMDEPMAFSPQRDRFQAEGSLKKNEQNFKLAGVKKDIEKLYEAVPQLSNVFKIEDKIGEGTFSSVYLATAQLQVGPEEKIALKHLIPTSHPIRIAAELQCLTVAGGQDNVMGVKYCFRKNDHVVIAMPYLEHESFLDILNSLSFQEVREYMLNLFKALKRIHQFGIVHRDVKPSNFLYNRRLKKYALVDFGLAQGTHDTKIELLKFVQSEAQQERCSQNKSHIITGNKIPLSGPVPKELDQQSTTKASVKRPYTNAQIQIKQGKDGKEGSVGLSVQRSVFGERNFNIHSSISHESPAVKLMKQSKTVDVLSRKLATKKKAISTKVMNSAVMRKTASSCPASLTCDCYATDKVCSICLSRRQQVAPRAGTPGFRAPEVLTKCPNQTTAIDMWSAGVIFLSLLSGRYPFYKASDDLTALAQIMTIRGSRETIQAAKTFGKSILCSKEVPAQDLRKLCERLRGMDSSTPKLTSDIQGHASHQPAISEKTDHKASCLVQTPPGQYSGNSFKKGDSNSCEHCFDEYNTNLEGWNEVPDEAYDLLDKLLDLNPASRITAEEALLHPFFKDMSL
# Chain of CDC7/DBF4 (Q9UBU7 whole entry partner): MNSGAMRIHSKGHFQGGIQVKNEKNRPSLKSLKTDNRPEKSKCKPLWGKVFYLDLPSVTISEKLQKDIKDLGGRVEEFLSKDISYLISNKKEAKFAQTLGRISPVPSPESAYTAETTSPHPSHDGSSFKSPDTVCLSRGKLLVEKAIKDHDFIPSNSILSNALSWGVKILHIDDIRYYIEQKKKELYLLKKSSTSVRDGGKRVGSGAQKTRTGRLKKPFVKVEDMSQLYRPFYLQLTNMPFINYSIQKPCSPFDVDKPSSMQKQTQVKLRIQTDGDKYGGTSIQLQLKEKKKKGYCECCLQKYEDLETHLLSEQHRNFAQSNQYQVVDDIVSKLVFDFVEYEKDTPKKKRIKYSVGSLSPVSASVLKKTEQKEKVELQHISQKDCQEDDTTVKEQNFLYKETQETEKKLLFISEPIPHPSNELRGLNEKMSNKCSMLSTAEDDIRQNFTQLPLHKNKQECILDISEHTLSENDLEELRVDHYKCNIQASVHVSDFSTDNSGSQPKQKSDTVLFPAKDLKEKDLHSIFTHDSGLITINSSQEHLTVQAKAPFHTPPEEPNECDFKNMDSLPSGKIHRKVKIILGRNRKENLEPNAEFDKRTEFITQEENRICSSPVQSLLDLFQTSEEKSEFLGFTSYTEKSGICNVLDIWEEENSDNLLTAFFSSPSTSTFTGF
# Chain of CSF1R (FMS) (P07333 20-972): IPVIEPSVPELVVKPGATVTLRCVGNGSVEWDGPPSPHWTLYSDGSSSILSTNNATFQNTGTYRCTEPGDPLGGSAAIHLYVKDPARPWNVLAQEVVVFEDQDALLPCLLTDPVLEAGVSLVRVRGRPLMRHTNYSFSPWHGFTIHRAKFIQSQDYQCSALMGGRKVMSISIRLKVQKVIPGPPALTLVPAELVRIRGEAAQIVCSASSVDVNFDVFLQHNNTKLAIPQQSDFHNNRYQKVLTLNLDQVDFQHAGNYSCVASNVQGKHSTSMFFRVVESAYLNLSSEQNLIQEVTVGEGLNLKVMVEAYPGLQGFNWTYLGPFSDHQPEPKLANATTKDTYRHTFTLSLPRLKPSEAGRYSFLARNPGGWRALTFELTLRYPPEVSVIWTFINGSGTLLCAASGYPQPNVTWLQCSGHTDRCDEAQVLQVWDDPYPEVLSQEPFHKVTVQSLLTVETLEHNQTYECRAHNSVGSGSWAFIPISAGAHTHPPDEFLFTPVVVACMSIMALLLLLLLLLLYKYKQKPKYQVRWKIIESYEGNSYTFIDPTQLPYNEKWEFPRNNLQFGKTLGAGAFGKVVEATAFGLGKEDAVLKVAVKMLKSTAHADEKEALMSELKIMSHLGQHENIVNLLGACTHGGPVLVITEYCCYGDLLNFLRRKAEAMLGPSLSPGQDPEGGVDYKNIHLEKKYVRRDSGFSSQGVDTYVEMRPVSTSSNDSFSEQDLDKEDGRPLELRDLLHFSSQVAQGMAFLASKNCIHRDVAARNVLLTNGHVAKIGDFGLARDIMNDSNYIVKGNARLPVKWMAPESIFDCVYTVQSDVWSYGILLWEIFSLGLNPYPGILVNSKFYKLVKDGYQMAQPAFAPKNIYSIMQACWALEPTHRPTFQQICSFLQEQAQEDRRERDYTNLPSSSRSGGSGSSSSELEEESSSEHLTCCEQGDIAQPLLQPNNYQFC
# Chain of CASK (O14936 whole entry): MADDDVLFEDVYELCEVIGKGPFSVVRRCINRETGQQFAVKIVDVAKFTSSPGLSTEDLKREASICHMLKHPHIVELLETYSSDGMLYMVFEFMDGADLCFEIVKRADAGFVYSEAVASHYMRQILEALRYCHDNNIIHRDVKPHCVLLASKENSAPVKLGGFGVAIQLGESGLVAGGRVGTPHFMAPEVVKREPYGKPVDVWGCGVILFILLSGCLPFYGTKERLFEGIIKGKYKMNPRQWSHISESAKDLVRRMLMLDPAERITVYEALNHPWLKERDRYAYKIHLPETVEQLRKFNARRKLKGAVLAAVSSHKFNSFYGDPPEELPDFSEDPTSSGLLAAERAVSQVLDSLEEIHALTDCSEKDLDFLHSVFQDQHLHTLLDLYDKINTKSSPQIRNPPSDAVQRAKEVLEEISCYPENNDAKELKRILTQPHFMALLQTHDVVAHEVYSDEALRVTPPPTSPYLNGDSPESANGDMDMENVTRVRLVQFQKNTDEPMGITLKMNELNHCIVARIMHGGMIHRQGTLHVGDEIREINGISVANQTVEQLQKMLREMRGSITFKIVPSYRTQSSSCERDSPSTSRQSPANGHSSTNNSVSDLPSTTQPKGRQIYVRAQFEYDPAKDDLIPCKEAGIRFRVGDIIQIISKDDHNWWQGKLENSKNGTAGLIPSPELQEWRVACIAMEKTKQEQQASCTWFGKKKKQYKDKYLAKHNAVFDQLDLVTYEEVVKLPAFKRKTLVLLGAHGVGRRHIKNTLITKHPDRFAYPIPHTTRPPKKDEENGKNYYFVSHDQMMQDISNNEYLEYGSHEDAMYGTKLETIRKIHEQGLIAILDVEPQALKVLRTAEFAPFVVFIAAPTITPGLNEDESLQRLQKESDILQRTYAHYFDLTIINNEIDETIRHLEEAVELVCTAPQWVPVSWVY
# Chain of STK22B (TSSK2) (Q96PF2 whole entry): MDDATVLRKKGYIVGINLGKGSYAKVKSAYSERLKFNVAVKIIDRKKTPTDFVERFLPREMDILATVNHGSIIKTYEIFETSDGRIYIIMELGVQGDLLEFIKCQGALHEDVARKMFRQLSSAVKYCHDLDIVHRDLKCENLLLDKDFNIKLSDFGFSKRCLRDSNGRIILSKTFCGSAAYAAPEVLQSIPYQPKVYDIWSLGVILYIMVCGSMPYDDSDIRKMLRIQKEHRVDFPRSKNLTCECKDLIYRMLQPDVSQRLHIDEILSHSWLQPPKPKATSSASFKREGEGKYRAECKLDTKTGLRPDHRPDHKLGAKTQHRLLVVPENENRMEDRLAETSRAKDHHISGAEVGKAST
smiles,measurement,setting,value
O=C(c1ccc(/C=C/c2n[nH]c3ccccc23)cc1)N1CCNCC1 [KW-2449],inhibition at 10 µM,PRKD1 (PKC mu),97%
same,% Inhibition 2C8 DBOMF,P450 2C8,33%
same,inhibition at 10 µM,CSNK1A1L,20%
same,inhibition at 10 µM,PI4KA (PI4K alpha),7%
same,inhibition at 10 µM,ALK,101%
same,inhibition at 10 µM,CDC7/DBF4,16%
same,inhibition at 10 µM,PRKACB (PRKAC beta),48%
same,inhibition at 10 µM,EPHA6,73%
same,inhibition at 10 µM,PKMYT1,-61%
same,inhibition at 10 µM,LATS1,-17%
same,inhibition at 10 µM,CAMK2A (CaMKII alpha),67%
same,inhibition at 10 µM,PRKCD (PKC delta),25%
same,cell senescence (beta-galactosidase),RT and MB cells,dose-dependent induction of cell senescence
same,inhibition at 10 µM,STK22B (TSSK2),74%
same,inhibition at 10 µM,MAP2K2 (MEK2),73%
same,inhibition at 10 µM,CSK,71%
same,inhibition at 10 µM,STK17A (DRAK1),85%
same,inhibition at 10 µM,PRKCQ (PKC theta),32%
same,inhibition at 10 µM,MAPK13 (p38 delta),30%
same,inhibition at 10 µM,RPS6KA5 (MSK1),49%
same,inhibition at 10 µM,RET V804E,94%
same,inhibition at 10 µM,CDK9/cyclin T1,82%
same,inhibition at 10 µM,MAPK3 (ERK1),41%
same,inhibition at 10 µM,AURKB (Aurora B),102%
same,inhibition at 10 µM,RET V804L,100%
same,inhibition at 10 µM,ABL1 Y253F,100%
same,inhibition at 10 µM,MERTK (cMER),93%
same,inhibition at 10 µM,CSF1R (FMS),99%
same,inhibition at 10 µM,AMPK (A1/B1/G2),85%
same,inhibition at 10 µM,BMPR1A (ALK3),98%
same,inhibition at 10 µM,PHKG2,99%
same,inhibition at 10 µM,NEK2,47%
same,inhibition at 10 µM,PDGFRA (PDGFR alpha),91%
same,inhibition at 10 µM,MINK1,102%
same,inhibition at 10 µM,SIK3,-1%
same,inhibition at 10 µM,ABL2 (Arg),98%
same,inhibition at 10 µM,NTRK2 (TRKB),99%
same,inhibition at 10 µM,CASK,-63%
same,inhibition at 10 µM,NEK1,67%
